Data: patent US9328138B2 (priority 2011, dated 2016)

Key:
[1] = target: T1, HCV genotype 1b (BK) NS3 modified enzyme with a R155K mutation (Hepatitis C virus genotype 1b, UniProt P26663, R1181K); assay: HCV NS3 protease time-resolved fluorescence (TRF) assay, genotype 1b R155K; format: biochemical; details: Ki 1b R155K
T1 construct: HCV genotype 1b (BK) NS3 modified enzyme
Protocol: (§1) The HCV NS3 protease inhibitory activity of the present compounds may be tested using assays known in the art. One such assay is HCV NS3 protease time-resolved fluorescence (TRF) assay as described below and in International Patent Application Publication No. WO2006/102087. Other examples of such assays are described in e.g., International Patent Application Publication No. WO2005/046712. The assay is performed in a final volume of 100 μl in assay buffer containing 50 mM HEPES, pH 7.5, 150 mM NaCl, 15% glycerol, 0.15% Triton X-100, 10 mM DTT, and 0.1% PEG 8000. NS3 protease is pre-incubated with various concentrations of inhibitors in DMSO for 30 minutes. The reaction is initiated by adding the TRF peptide substrate (final concentration 100 nM). NS3 mediated hydrolysis of the substrate is quenched after 1 hour at room temperature with 100 μl of 500 mM MES, pH 5.5. Product fluorescence is detected using either a VICTOR V2 or FUSION fluorophotometer (Perkin Elmer Life and Analytical Sciences) with excitation at 340 nm and emission at 615 nm with a 400 μs delay. Testing concentrations of different enzyme forms are selected to result in a signal to background ratio (S/B) of 10-30. IC50 values are derived using a standard four-parameter fit to the data. K; values are derived from IC50 values using the following formula, IC50=Ki(1+[S]/Km), Eqn (1), where [S] is the concentration of substrate peptide in the reaction and KM is the Michaelis constant. See Gallinari et al., 1999, Biochem. 38:5620-32; Gallinari et al., 1998, J. Virol. 72:6758-69; Taliani et al., 1996, Anal. Biochem. 240:60-67.
(§2) The HCV NS3 protease inhibitory activity was measured using the protease time-resolved fluorescence (TRF) assay as described below and in International Patent Application Publication No. WO 2006/102087. The assay was performed with HCV genotype 1b (BK) NS3 modified enzyme with a R155K mutation and genotype 3a (3A-1).
(§3) The assay was performed in a final volume of 50 μl in assay buffer containing 50 mM HEPES, pH 7.5, 150 mM NaCl, 15% glycerol, 0.15% TRITON X-100, 10 mM DTT, and 0.1% PEG 8000. NS3 and NS4A protease is pre-incubated with various concentrations of inhibitors in DMSO for 10 minutes. The reaction was initiated by adding the TRF peptide substrate (final concentration 25 nM) and NS3 mediated hydrolysis of the substrate proceeds for 6 hours at room temperature. Product fluorescence is detected using an Envision plate reader (Perkin Elmer) with excitation at 340 nm and emission at 615 nm with a 400 μs delay. Testing concentrations of the enzymes were selected to result in a signal to background ratio (S/B) of 5-20. IC50 values are derived using a standard four-parameter fit to the data.
(§4) NS3 and NS4A protease is pre-incubated with various concentrations of inhibitors in DMSO for 30 minutes. The reaction is initiated by adding the TRF peptide substrate (final concentration 100 nM). NS3 mediated hydrolysis of the substrate is quenched after 1 hour at room temperature with 100 μl of 500 mM MES, pH 5.5. Product fluorescence is detected using either a VICTOR V2 or FUSION fluorophotometer (Perkin Elmer Life and Analytical Sciences) with excitation at 340 nm and emission at 615 nm with a 400 μs delay. Testing concentrations of the enzymes are selected to result in a signal to background ratio (S/B) of 8-30. IC50 values are derived using a standard four-parameter fit to the data. Ki values are derived from IC50 values using the following formula, IC50=Ki(1+[S][…]), Eqn (1), where [S] is the concentration of substrate peptide in the reaction and KM is the Michaelis constant. See Gallinari et al., 1999, Biochem. 38:5620-32; Gallinari et al., 1998, J. Virol. 72:6758-69; and Taliani et al., 1996, Anal. Biochem. 240:60-67. ND means not determined.

[2] = target: HCV NS3 protease genotype 3a (3A-1) (Hepatitis C virus genotype 3a, UniProt Q81258); assay: HCV NS3 protease time-resolved fluorescence (TRF) assay, genotype 3a; format: biochemical; details: Ki 3a
Protocol: as §1, §2, §3, §4

[3] = genotype 1b (BK) NS3 R155K, single value
[4] = first of two values printed in the cell (not explained)
[5] = second of two values printed in the cell (not explained)

SMILES	Ki [1, 3] [nM]	Ki [2] [nM]	Ki [1, 4] [nM]	Ki [1, 5] [nM]
C=C[C@@H]1C[C@]1(NC(=O)[C@@H]1C[C@@H]2CN1C(=O)[C@H](C1CCCC1)NC(=O)O[C@@H]1CCC[C@H]1CC/C=C/Cc1c(nc3ccccc3c1OCCc1ccccn1)O2)C(=O)NS(=O)(=O)C1CC1 [Example 43, (3aR,7S,10S,12R,21E,24aS)-7-cyclopentyl-N-{(1R,2S)-1-[(cyclopropylsulfonyl)carbamoyl]-2-ethenylcyclopropyl}-5,8-dioxo-19-[2-(pyridin-2-yl)ethoxy]-1,2,3,3a, 5,6,7,8,11,12,20,23,24,24a-tetradecahydro-10H-9,12-methanocyclopenta [18,19][1,10,3,6]dioxadiazacyclonona decino[11,12-b]quinoline-10-carboxamide]	0.28	9.9		
C=C[C@@H]1C[C@]1(NC(=O)[C@@H]1C[C@@H]2CN1C(=O)[C@H](C1CCCC1)NC(=O)O[C@@H]1C[C@H]1CC/C=C/Cc1c(nc3ccccc3c1OC)O2)C(=O)NS(=O)(=O)C1CC1 [Example 11, (1aR,5S,10R,19E,22aR)-5-cyclo pentyl-N-{(1R,2S)-1-[(cyclopropylsulfonyl)carbamoyl]-2-ethenylcyclopropyl}-17-methoxy-3,6-dioxo-1,1a, 3,4,5,6,9,10,18,21,22,22a-dodeca hydro-8H-7,10-methanocyclopropa[18,19][1,10,3,6] dioxadiazacyclononadecino[11,12-b] quinoline-8-carboxamide]	0.26	11		
C=C[C@@H]1C[C@]1(NC(=O)[C@@H]1C[C@@H]2CN1C(=O)[C@H](C1CCCC1)NC(=O)O[C@@H]1C[C@H]1CCCCCc1c(nc3ccccc3c1OC)O2)C(=O)NS(=O)(=O)C1CC1 [Example 28, (1aR,5S,8S,10R,22aR)-5-cyclo pentyl-N-{(1R,2S)-1-[(cyclopropylsulfonyl)carbamoyl]-2-ethenylcyclopropyl}-17-methoxy-3,6-dioxo-1,1a, 3,4,5,6,9,10,18,19,20,21,22,22a-tetradecahydro-8H-7,10-methanocyclopropa[18,19][1,10,3,6] dioxadiazacyclononadecino[11,12-b]quinoline-8-carboxamide]	0.7	35		
C=C[C@@H]1C[C@]1(NC(=O)[C@@H]1C[C@@H]2CN1C(=O)[C@H](C(C)(C)C)NC(=O)O[C@]1(C)C[C@H]1CCCCCc1c(nc3ccccc3c1OCCN1CCOCC1)O2)C(=O)NS(=O)(=O)C1(C)CC1 [Example 101, (1aR,5S,8S,10R,22aR)-5-tert-butyl-N-[(1R,2S)-2-ethenyl-1-{[(1-methylcyclopropyl)sulfonyl]carbamoyl}cyclopropyl]-1a-methyl-17-[2-(morpholin-4-yl)ethoxy]-3,6-dioxo-1,1,a, 3,4,5,6,9,10,18,19,20,21,22,22a-tetradecahydro-8H-7,10-methano-cyclopropa[18,19][1,10,3,6]dioxa diazacyclononadecino[11,12-b] quinoline-8-carboxamide]	0.09	0.96		
C=C[C@@H]1C[C@]1(NC(=O)[C@@H]1C[C@@H]2CN1C(=O)[C@H](C(C)(C)C)NC(=O)O[C@@H]1CCC[C@H]1CC/C=C/Cc1c(nc3ccccc3c1OCCCN1CCCC1=O)O2)C(=O)NS(=O)(=O)C1(C)CC1 [Example 89, (3aR,7S,10S,12R,21E,24aS)-7-tert-butyl-N-[(1R,2S)-2-ethenyl-1-{[(1-methycyclopropyl)sulfonyl]carbamoyl}cyclopropyl]-5,8-dioxo-19-[3-(2-oxopyrrolidin-1-yl)propoxy]-1,2,3,3a,5,6,7,8,11,12,20,23,24,24a-tetradecahydro-10H-9,12-methano-cyclopenta[18,19][1,10,3,6]dioxa diazacyclononadecino[11,12-b] quinoline-10-carboxamide]	0.07	0.32		
C=C[C@@H]1C[C@]1(NC(=O)[C@@H]1C[C@@H]2CN1C(=O)[C@H](C1CCCC1)NC(=O)O[C@@H]1CCC[C@H]1CC/C=C/Cc1c(nc3ccccc3c1OCCC1OCCO1)O2)C(=O)NS(=O)(=O)C1(C)CC1 [Example 50, (3aR,7S,10S,12R,21E,24aS)-7-cyclopentyl-19-[2-(1,3-dioxolan-2-yl)ethoxy]-N-[(1R,2S)-2-ethenyl-1-{[(1-methylcyclopropyl)sulfonyl]carbamoyl}cyclopropyl]-5,8-dioxo-1,2,3,3a, 5,6,7,8,11,12,20,23,24,24a-tetradeca hydro-10H-9,12-methanocyclopenta[18,19][1,10,3,6]dioxadiazacyclononadecino[11,12-b] quinoline-10-carboxamide]	0.23	6.6		
C=C[C@@H]1C[C@]1(NC(=O)[C@@H]1C[C@@H]2CN1C(=O)[C@H](C1CCCCC1)NC(=O)O[C@@H]1C[C@H]1CCCCCc1c(nc3ccccc3c1OC1CC3CCC(C1)N3CCOC)O2)C(=O)NS(=O)(=O)C1(C)CC1 (stereo partly drawn) [Example 284, (1aR,5S,8S,10R,22aR)-5-cyclohexyl-N-[(1R,2S)-2-ethenyl-1-{[(1-methylcyclopropyl)sulfonyl]carbamoyl}cyclopropyl]-17-{[8-(2-methoxyethyl)-8-azabicyclo[3.2.1]oct-3-yl]oxy}-3,6-dioxo-1,1a,3,4,5,6,9,10,18,19,20,21,22,22a-tetradecahydro-8H-7,10-methanocyclopropa[18,19][1,10,3,6]dioxadiazacyclononadecino[11,12-b]quinoline-8-carboxamide]		0.28	0.023	0.053
C=C[C@@H]1C[C@]1(NC(=O)[C@@H]1C[C@@H]2CN1C(=O)[C@H](C1CCCCC1)NC(=O)O[C@@H]1C[C@H]1CCCCCc1c(nc3c(F)cccc3c1OC1CCN(C)CC1)O2)C(=O)NS(=O)(=O)C1(C)CC1 [Example 286, (1aR,5S,8S,10R,22aR)-5-cyclohexyl-N-[(1R,2S)-2-ethenyl-1-{[(1-methylcyclopropyl)sulfonyl]carbamoyl}cyclopropyl]-13-fluoro-17-[(1-methylpiperidin-4-yl)oxy]-3,6-dioxo-1,1a,3,4,5,6,9,10,18,19,20,21,22,22a-tetradecahydro-8H-7,10-methanocyclopropa[18,19][1,10,3,6]dioxadiazacyclononadecino[11,12-b]quinoline-8-carboxamide]		0.515	0.022	0.094
C=C[C@@H]1C[C@]1(NC(=O)[C@@H]1C[C@@H]2CN1C(=O)[C@H](C1CCCC1)NC(=O)O[C@]1(C)C[C@H]1CC/C=C/Cc1c(nc3ccccc3c1O)O2)C(=O)NS(=O)(=O)C1CC1 [Example 19, (1aR,5S,8S,10R,19E,22aR)-5-cyclopentyl-N-{(1R,2S)-1-[(cyclopropylsulfonyl)carbamoyl]-2-ethenylcyclopronyl}-17-hydroxy-1a-methyl-3,6-dioxo-1,1a,3,4,5,6,9,10,18,21,22,22a-dodecahydro-8H-7,10-methanocyclopropa[18,19][1,10,3,6]dioxadiazacyclononadecino[11,12-b]quinoline-8-carboxamide]	0.091			
C=C[C@@H]1C[C@]1(NC(=O)[C@@H]1C[C@@H]2CN1C(=O)[C@H](C1CCCC1)NC(=O)O[C@]1(C)CCC[C@H]1CCCCCc1c(nc3ccccc3c1O)O2)C(=O)NS(=O)(=O)C1CC1 (single isomer, unassigned) [Example 29]	0.12			
